In experiment [1] the target is T1, AR-VP16 (Homo sapiens, UniProt P10275).
T1 sequence (P10275 560-920 limits assumed): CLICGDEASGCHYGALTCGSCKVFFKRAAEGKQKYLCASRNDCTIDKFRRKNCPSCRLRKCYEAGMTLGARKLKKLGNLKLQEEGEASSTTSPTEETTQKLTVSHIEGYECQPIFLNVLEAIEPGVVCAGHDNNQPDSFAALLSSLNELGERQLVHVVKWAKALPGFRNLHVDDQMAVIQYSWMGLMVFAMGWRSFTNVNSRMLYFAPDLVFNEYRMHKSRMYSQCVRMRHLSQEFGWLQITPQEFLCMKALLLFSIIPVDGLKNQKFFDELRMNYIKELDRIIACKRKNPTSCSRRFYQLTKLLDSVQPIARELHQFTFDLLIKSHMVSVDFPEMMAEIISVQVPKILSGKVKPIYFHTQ
The experiment is described as follows: AR-VP16 DNA Binding Assay, agonist mode (HepG2 cells). Format: cell-based. Conditions: Emax >20x DMSO control = agonist.

In experiment [2] the target is T1, AR-VP16. As to the kind of experiment: AR-VP16 DNA Binding Assay, antagonist mode (HepG2 cells, 0.1 nM R1881). Format: cell-based. The method in brief: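 HepG2 cells transiently transfected with AR-VP16 (Lipofectin), incubated overnight, then treated with compound in RPMI with charcoal-stripped serum. Antagonist mode adds R1881 at 0.1 nM final. Cells lysed after 48 h incubation for read-out.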

On to `Cc1cc(N2C(=O)C3(CCC3)N(c3ccc(-c4ccco4)cc3)C2=S)cnc1C#N` [Compound 116, 5-(5-(4-(Furan-2-yl)phenyl)-8-oxo-6-thioxo-5,7-diazaspiro[3.4]octan-7-yl)-3-methylpicolinonitrile], for which, in experiment [1], the “ARVP16 DNA Binding Assay (Agonist mode): Agonist?” value (shortened to “ARVP16 DNA Binding Assay”) is “No (Agonist defined as a compound whose Emax in the ARVP16 DNA Binding Assay (Agonist mode) is >20x DMSO control)”. The IC50 in experiment [2] is under 1000 nM.

On to `N#Cc1ncc(N2C(=O)C3(CCC3)N(c3ccc(C(=O)NCc4cccc(Cl)c4)c(F)c3)C2=S)cc1C(F)(F)F` [Compound 288, N-(3-Chlorobenzyl)-4-(7-(6-cyano-5-(trifluoromethyl)pyridin-3-yl)-8-oxo-6-thioxo-5,7-diazaspiro[3.4]octan-5-yl)-2-fluorobenzamide], for which, in experiment [1], the “ARVP16 DNA Binding Assay” value is listed as “No (Agonist defined as a compound whose Emax in the ARVP16 DNA Binding Assay (Agonist mode) is >20x DMSO control)”. In addition, the IC50 in experiment [2] was under 1000 nM.

On to `CC(C)N1CCC(Oc2ccc(N3C(=S)N(c4cnc(C#N)c(C(F)(F)F)c4)C(=O)C34CCC4)cc2)CC1` [Compound 220, 5-(5-(4-((1-Isopropylpiperidin-4-yl)oxy)phenyl)-8-oxo-6-thioxo-5,7-diazaspiro[3.4]octan-7-yl)-3-(trifluoromethyl)picolinonitrile], for which, in experiment [1], the “ARVP16 DNA Binding Assay” value was “No (Agonist defined as a compound whose Emax in the ARVP16 DNA Binding Assay (Agonist mode) is >20x DMSO control)”. The same molecule had an IC50 in experiment [2] of under 1000 nM.

Consider `N#Cc1ncc(N2C(=O)C3(CCC3)N(c3ccc(S(=O)(=O)CCc4ccncc4)cc3)C2=S)cc1C(F)(F)F` [Compound 91, 5-(8-Oxo-5-(4-((2-(pyridin-4-yl)ethyl)sulfonyl)phenyl)-6-thioxo-5,7-diazaspiro[3.4]octan-7-yl)-3-(trifluoromethyl)picolinonitrile], for which the “ARVP16 DNA Binding Assay” value in experiment [1] is on record as “No (Agonist defined as a compound whose Emax in the ARVP16 DNA Binding Assay (Agonist mode) is >20x DMSO control)”. The molecule further had an IC50 in experiment [2] of over 1000 nM.

On to `CN1CCN(CCOc2cc(N3C(=S)N(c4cnc(C#N)c(C(F)(F)F)c4)C(=O)C34CCC4)ccc2F)CC1` [Compound 166, 5-(5-(4-Fluoro-3-(2-(4-methylpiperazin-1-yl)ethoxy)phenyl)-8-oxo-6-thioxo-5,7-diazaspiro[3.4]octan-7-yl)-3-(trifluoromethyl)picolinonitrile], for which the “ARVP16 DNA Binding Assay” value in experiment [1] was “No (Agonist defined as a compound whose Emax in the ARVP16 DNA Binding Assay (Agonist mode) is >20x DMSO control)”. The same molecule had a half-inhibitory concentration (IC50) in experiment [2] of over 1000 nM.

As for `CC(C)NC(=O)c1ccc(N2C(=S)N(c3cnc(C#N)c(C(F)(F)F)c3)C(=O)C23CCC3)cc1F` [Compound 279, 4-(7-(6-Cyano-5-(trifluoromethyl)pyridin-3-yl)-8-oxo-6-thioxo-5,7-diazaspiro[3.4]octan-5-yl)-2-fluoro-N-isopropylbenzamide], the “ARVP16 DNA Binding Assay” value in experiment [1] is on record as “No (Agonist defined as a compound whose Emax in the ARVP16 DNA Binding Assay (Agonist mode) is >20x DMSO control)”. This molecule showed an IC50 in experiment [2] of under 1000 nM.

`CC(C)CNC(=O)c1ccc(N2C(=S)N(c3cnc(C#N)c(C(F)(F)F)c3)C(=O)C23CCC3)cc1F` [Compound 280, 4-(7-(6-Cyano-5-(trifluoromethyl)pyridin-3-yl)-8-oxo-6-thioxo-5,7-diazaspiro[3.4]octan-5-yl)-2-fluoro-N-isobutylbenzamide]: the “ARVP16 DNA Binding Assay” value in experiment [1] is reported as “No (Agonist defined as a compound whose Emax in the ARVP16 DNA Binding Assay (Agonist mode) is >20x DMSO control)”. The molecule also showed an IC50 in experiment [2] of under 1000 nM.

For the molecule `Cc1cc(N2C(=O)C3(CCC3)N(c3ccc(OC4CCNCC4)cc3)C2=S)cnc1C#N` [Compound 210, 3-Methyl-5-(8-oxo-5-(4-(piperidin-4-yloxy)phenyl)-6-thioxo-5,7-diazaspiro[3.4]octan-7-yl)picolinonitrile], the “ARVP16 DNA Binding Assay” value in experiment [1] is given as “No (Agonist defined as a compound whose Emax in the ARVP16 DNA Binding Assay (Agonist mode) is >20x DMSO control)”. Besides, the IC50 in experiment [2] was over 1000 nM.

Take `N#Cc1ncc(N2C(=O)C3(CCC3)N(c3ccc(CO)cc3)C2=S)cc1C(F)(F)F` [Compound 69, 5-(5-(4-(Hydroxymethyl)phenyl)-8-oxo-6-thioxo-5,7-diazaspiro[3.4]octan-7-yl)-3-(trifluoromethyl)picolinonitrile]: the “ARVP16 DNA Binding Assay” value in experiment [1] was “No (Agonist defined as a compound whose Emax in the ARVP16 DNA Binding Assay (Agonist mode) is >20x DMSO control)”. For the same molecule, the IC50 in experiment [2] is under 1000 nM.

`N#Cc1ncc(N2C(=O)C3(CCC3)N(c3ccc(CCCC(=O)O)cc3)C2=S)cc1C(F)(F)F` [Compound 227, 4-(4-(7-(6-cyano-5-(trifluoromethyl)pyridin-3-yl)-8-oxo-6-thioxo-5,7-diazaspiro[3.4]octan-5-yl)phenyl)butanoic acid]: in experiment [1], the “ARVP16 DNA Binding Assay” value is “No (Agonist defined as a compound whose Emax in the ARVP16 DNA Binding Assay (Agonist mode) is >20x DMSO control)”. Besides, the IC50 in experiment [2] was over 1000 nM.

Take `N#Cc1ncc(N2C(=O)C3(CCC3)N(c3ccc4cn[nH]c4c3)C2=S)cc1C(F)(F)F` [Compound 88, 5-(5-(1H-Indazol-6-yl)-8-oxo-6-thioxo-5,7-diazaspiro[3.4]octan-7-yl)-3-(trifluoromethyl)picolinonitrile]: the “ARVP16 DNA Binding Assay” value in experiment [1] was “No (Agonist defined as a compound whose Emax in the ARVP16 DNA Binding Assay (Agonist mode) is >20x DMSO control)”. For the same molecule, the IC50 in experiment [2] was under 1000 nM.

For `N#Cc1ncc(N2C(=O)C3(CCC3)N(c3ccccc3-c3ccccc3)C2=S)cc1C(F)(F)F` [Compound 15, 5-(5-([1,1′-Biphenyl]-2-yl)-8-oxo-6-thioxo-5,7-diazaspiro[3.4]octan-7-yl)-3-(trifluoromethyl)picolinonitrile], the “ARVP16 DNA Binding Assay” value in experiment [1] is reported as “No (Agonist defined as a compound whose Emax in the ARVP16 DNA Binding Assay (Agonist mode) is >20x DMSO control)”. This molecule also came in with an IC50 in experiment [2] of over 1000 nM.

For `CCC(=O)N1CCC(Oc2ccc(N3C(=S)N(c4cnc(C#N)c(C(F)(F)F)c4)C(=O)C34CCC4)cc2)CC1` [Compound 212, 5-(8-Oxo-5-(4-((1-propionylpiperidin-4-yl)oxy)phenyl)-6-thioxo-5,7-diazaspiro[3.4]octan-7-yl)-3-(trifluoromethyl)picolinonitrile], in experiment [1], the “ARVP16 DNA Binding Assay” value was “Yes (Agonist defined as a compound whose Emax in the ARVP16 DNA Binding Assay (Agonist mode) is >20x DMSO control)”. The IC50 in experiment [2] is under 1000 nM.

For `N#Cc1ncc(N2C(=O)C3(CCC3)N(c3ccc(OCCn4cccc4)c(F)c3)C2=S)cc1C(F)(F)F` [Compound 146, 5-(5-(4-(2-(1H-Pyrrol-1-yl)ethoxy)-3-fluorophenyl)-8-oxo-6-thioxo-5,7-diazaspiro[3.4]octan-7-yl)-3-(trifluoromethyl)picolinonitrile], the “ARVP16 DNA Binding Assay” value in experiment [1] is recorded as “No (Agonist defined as a compound whose Emax in the ARVP16 DNA Binding Assay (Agonist mode) is >20x DMSO control)”. In addition, in experiment [2], the IC50 was under 1000 nM.

For the molecule `N#Cc1ncc(N2C(=O)C3(CCC3)N(c3ccc(Oc4cnccn4)cc3)C2=S)cc1C(F)(F)F` [Compound 207, 5-(8-Oxo-5-(4-(pyrazin-2-yloxy)phenyl)-6-thioxo-5,7-diazaspiro[3.4]octan-7-yl)-3-(trifluoromethyl)picolinonitrile], the “ARVP16 DNA Binding Assay” value in experiment [1] was “No (Agonist defined as a compound whose Emax in the ARVP16 DNA Binding Assay (Agonist mode) is >20x DMSO control)”. In experiment [2], this molecule yielded an IC50 of under 1000 nM.

For `N#Cc1ncc(N2C(=O)C3(CCC3)N(c3ccc(OCCCSCCCC(F)(F)C(F)(F)F)c(F)c3)C2=S)cc1C(F)(F)F` [Compound 153, 5-(5-(3-Fluoro-4-(3-((4,4,5,5,5-pentafluoropentyl)thio)propoxy)phenyl)-8-oxo-6-thioxo-5,7-diazaspiro[3.4]octan-7-yl)-3-(trifluoromethyl)picolinonitrile], the “ARVP16 DNA Binding Assay” value in experiment [1] is reported as “No (Agonist defined as a compound whose Emax in the ARVP16 DNA Binding Assay (Agonist mode) is >20x DMSO control)”. In addition, the half-inhibitory concentration (IC50) in experiment [2] was under 1000 nM.

For `Cc1ccc(CNC(=O)c2ccc(N3C(=S)N(c4cnc(C#N)c(C(F)(F)F)c4)C(=O)C34CCC4)cc2F)o1` [Compound 291, 4-(7-(6-Cyano-5-(trifluoromethyl)pyridin-3-yl)-8-oxo-6-thioxo-5,7-diazaspiro[3.4]octan-5-yl)-2-fluoro-N-((5-methylfuran-2-yl)methyl)benzamide], in experiment [1], the “ARVP16 DNA Binding Assay” value was “No (Agonist defined as a compound whose Emax in the ARVP16 DNA Binding Assay (Agonist mode) is >20x DMSO control)”. In experiment [2], the IC50 was under 1000 nM.

On to `Cc1ccc(N2C(=S)N(c3ccc(C#N)c(C(F)(F)F)n3)C(=O)C23CCC3)cc1` [Compound 34, 6-(8-Oxo-6-thioxo-5-(p-tolyl)-5,7-diazaspiro[3.4]octan-7-yl)-2-(trifluoromethyl)nicotinonitrile], for which the “ARVP16 DNA Binding Assay” value in experiment [1] is “No (Agonist defined as a compound whose Emax in the ARVP16 DNA Binding Assay (Agonist mode) is >20x DMSO control)”. Also, the IC50 in experiment [2] is over 1000 nM.

For the molecule `N#Cc1ncc(N2C(=O)C3(CCC3)N(c3ccc(-c4ccccn4)cc3)C2=S)cc1C(F)(F)F` [Compound 16, 5-(8-Oxo-5-(4-(pyridin-2-yl)phenyl)-6-thioxo-5,7-diazaspiro[3.4]octan-7-yl)-3-(trifluoromethyl)picolinonitrile], the “ARVP16 DNA Binding Assay” value in experiment [1] is “No (Agonist defined as a compound whose Emax in the ARVP16 DNA Binding Assay (Agonist mode) is >20x DMSO control)”. In experiment [2], this molecule showed an IC50 of under 1000 nM.
